Test results from US20230066946A1, “1,5-DIPHENYLPYRAZOLYL-3-OXYALKYL ACIDS AND 1-PHENYL-5-THIENYLPYRAZOLYL-3-OXYALKYL ACIDS AND THE USE THEREOF FOR CONTROL OF UNWANTED PLANT GROWTH” (Bayer Aktiengesellschaft, priority 2019, published 2023).

Legend:
VIOTR [1] = test: Post-emergence herbicidal action against VIOTR; type: in vivo, Viola tricolor; conditions: 320 g/ha, visual rating about 3 weeks after treatment
Method in brief: (§1)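 Weeds grown in sandy loam under greenhouse conditions were sprayed at the one-leaf stage, 2-3 weeks after sowing. Compounds were applied as WP or EC formulations in water with 0.5% additive at 600 L/ha, at 1280 or 320 g/ha. Activity was rated visually about 3 weeks later against untreated controls (0-100%).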

PHBPU [2] = test: Post-emergence herbicidal action against PHBPU; type: in vivo, Pharbitis purpurea; conditions: 320 g/ha, visual rating about 3 weeks after treatment
Method in brief: as §1

AMARE [3] = test: Post-emergence herbicidal action against AMARE; type: in vivo, Amaranthus retroflexus; conditions: visual rating about 3 weeks after treatment
Method in brief: as §1

MATIN [4] = test: Pre-emergence herbicidal action against MATIN; type: in vivo, Matricaria inodora; conditions: 1280 g/ha, scored visually after about 3 weeks vs untreated controls
Method in brief: (§2)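 Pre-emergence, sandy loam, pots doubly sown. WP/EC formulations + 0.5% additive, 600 L/ha water, sprayed on soil surface; 1280 or 320 g/ha. Greenhouse ~3 wk; visual % effect vs untreated.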

CYPES = test: Pre-emergence herbicidal action against CYPES; type: in vivo, Cyperus esculentus; conditions: scored visually after about 3 weeks vs untreated controls, 100% = plants have died, 0% = like control plants
Source text: (§3) Seeds of mono- and dicotyledonous weed plants are placed in plastic pots in sandy loam soil (doubly sown with one species each of mono- or dicotyledonous weed plants per pot) and covered with soil. The compounds of the invention, formulated in the form of wettable powders (WP) or as emulsion concentrates (EC), are then applied onto the surface of the covering soil as aqueous suspension or emulsion with addition of 0.5% additive at a water application rate equivalent to 600 litres per hectare. After the treatment, the pots are placed in a greenhouse and kept under good growth conditions for the trial plants. After about 3 weeks, the effect of the preparations is scored visually in comparison with untreated controls as percentages. For example, 100% activity=the plants have died, 0% activity=like control plants. [table] Tables 4.1-4.15 below show the effects of selected compounds of the general formula (I) according to Tables 1 to 3 on various harmful plants at an application rate corresponding to 1280 or 320 g/ha, which have been obtained by the aforementioned experimental method.

AMARE [5] = test: Pre-emergence herbicidal action against AMARE; type: in vivo, Amaranthus retroflexus; conditions: scored visually after about 3 weeks vs untreated controls; for Pre-emergence action at 320 g/ha against AMARE in %: 100% = plants have died, 0% = like control plants; for Pre-emergence action against AMARE in %: 1280 g/ha
Method in brief: as §2

STEME [6] = test: Post-emergence herbicidal action against STEME; type: in vivo, Stellaria media; conditions: visual rating about 3 weeks after treatment
Method in brief: as §1

AVEFA = test: Post-emergence herbicidal action against AVEFA; type: in vivo, Avena fatua; conditions: 1280 g/ha, post-emergence at one-leaf stage, rated visually after about 3 weeks vs untreated controls
Description: (§4) [table] Seeds of mono- and dicotyledonous weed plants are placed in plastic pots in sandy loam soil (twin sowing with one species each of mono- or dicotyledonous weed plants per pot), covered with soil and cultivated in a greenhouse under controlled growth conditions. 2 to 3 weeks after sowing, the test plants are treated at the one-leaf stage. The compounds of the invention, formulated in the form of wettable powders (WP) or as emulsion concentrates (EC), are applied to the green parts of the plants as aqueous suspension or emulsion with addition of 0.5% additive at a water application rate equivalent to 600 litres per hectare. After the test plants have been kept in the greenhouse under optimum growth conditions for about 3 weeks, the activity of the preparations is rated visually in comparison to untreated controls. For example, 100% activity=the plants have died, 0% activity=like control plants. Tables 5.1-5.16 below show the effects of selected compounds of the general formula (I) according to Tables 1 to 3 on various harmful plants at an application rate corresponding to 1280 or 320 g/ha, which have been obtained by the aforementioned experimental method.

VERPE [7] = test: Pre-emergence herbicidal action against VERPE; type: in vivo, Veronica persica; conditions: 320 g/ha, scored visually after about 3 weeks vs untreated controls
Method in brief: as §2

MATIN [8] = test: Post-emergence herbicidal action against MATIN; type: in vivo, Matricaria inodora; conditions: visual rating about 3 weeks after treatment
Method in brief: as §1

SETVI [9] = test: Pre-emergence herbicidal action against SETVI; type: in vivo, Setaria viridis; conditions: 1280 g/ha, scored visually after about 3 weeks vs untreated controls
Method in brief: as §2

VERPE [10] = test: Post-emergence herbicidal action against VERPE; type: in vivo, Veronica persica; conditions: 320 g/ha, visual rating about 3 weeks after treatment
Method in brief: as §1

STEME [11] = test: Pre-emergence herbicidal action against STEME; type: in vivo, Stellaria media; conditions: 1280 g/ha, scored visually after about 3 weeks vs untreated controls
Method in brief: as §2

PHBPU [12] = test: Pre-emergence herbicidal action against PHBPU; type: in vivo, Pharbitis purpurea; conditions: 1280 g/ha, scored visually after about 3 weeks vs untreated controls
Source text: as §3

VIOTR [13] = test: Pre-emergence herbicidal action against VIOTR; type: in vivo, Viola tricolor; conditions: 1280 g/ha, scored visually after about 3 weeks vs untreated controls
Method in brief: as §2

ALOMY = test: Post-emergence herbicidal action against ALOMY; type: in vivo, Alopecurus myosuroides; conditions: 1280 g/ha, post-emergence at one-leaf stage, rated visually after about 3 weeks vs untreated controls
Description: as §4

POLCO = test: Post-emergence herbicidal action against POLCO; type: in vivo, Polygonum convolvulus; conditions: 320 g/ha, visual rating about 3 weeks after treatment
Method in brief: as §1

harmful plants = test: Pre-emergence herbicidal action, summary of Tables 4.1-4.15; type: in vivo; conditions: result in words
Source text: as §3, with “plants.” for “plants. [table] Tables 4.1-4.15 below show the effects of selected compounds of the general formula (I) according to Tables 1 to 3 on various harmful plants at an application rate corresponding to 1280 or 320 g/ha, which have been obtained by the aforementioned experimental method.”
Tables 4.1-4.15 below show the effects of selected compounds of the general formula (I) according to Tables 1 to 3 on various harmful plants at an application rate corresponding to 1280 or 320 g/ha, which have been obtained by the aforementioned experimental method.
For example, compounds no. I-008, I-056, I-057, I-061, I-067, I-070 and I-072 applied by the pre-emergence method have very good action (80% to 100% herbicidal action) against harmful plants such as Alopecurus myosuroides, Amaranthus retroflexus, Matricaria inodora, Polygonum convolvulus, Setaria viridis and Stellaria media at an application rate of 1.28 kg of active substance or less per hectare.

ECHCG [14] = test: Post-emergence herbicidal action against ECHCG; type: in vivo, Echinochloa crus-galli; conditions: 1280 g/ha, post-emergence at one-leaf stage, rated visually after about 3 weeks vs untreated controls
Method in brief: as §1

SETVI [15] = test: Post-emergence herbicidal action against SETVI; type: in vivo, Setaria viridis; conditions: 1280 g/ha, post-emergence at one-leaf stage, rated visually after about 3 weeks vs untreated controls
Method in brief: as §1

ECHCG [16] = test: Pre-emergence herbicidal action against ECHCG; type: in vivo, Echinochloa crus-galli; conditions: scored visually after about 3 weeks vs untreated controls, 100% = plants have died, 0% = like control plants
Method in brief: as §2

SMILES | Post-emergence action against VIOTR in % (VIOTR [1]) | Post-emergence action against PHBPU in % (PHBPU [2]) | Post-emergence action against AMARE in % (AMARE [3]; 320 g/ha) | Post-emergence action against AMARE in % (AMARE [3]; 1280 g/ha) | Pre-emergence action against MATIN in % (MATIN [4]) | Pre-emergence action at 320 g/ha against AMARE in % (AMARE [5]) | Pre-emergence action against AMARE in % (AMARE [5]) | Post-emergence action against STEME in % (STEME [6]; 320 g/ha) | Post-emergence action against STEME in % (STEME [6]; 1280 g/ha) | Post-emergence action against AVEFA in % (AVEFA) | Pre-emergence action against VERPE in % (VERPE [7]) | Post-emergence action against MATIN in % (MATIN [8]; 320 g/ha) | Post-emergence action against MATIN in % (MATIN [8]; 1280 g/ha) | Pre-emergence action against SETVI in % (SETVI [9]) | Post-emergence action against VERPE in % (VERPE [10]) | Pre-emergence action against STEME in % (STEME [11]) | Pre-emergence action against VIOTR in % (VIOTR [13]) | further results
COC(=O)COc1nn(-c2cccc(F)c2)c(-c2ccc(F)cc2)c1C#N [I-012] | 80% | 80% | 80% | 80% | 100% | 100% | 100% | 80% | 80% | 80% |  |  |  |  |  |  |  | Pre-emergence action at 1280 g/ha against CYPES in % (CYPES): 100%
COC(=O)COc1nn(-c2ccccc2F)c(-c2ccccc2)c1Cl [I-015] |  | 80% | 80% | 80% | 90% | 90% | 90% |  |  |  | 90% | 90% | 90% | 90% | 90% | 90% |  | Pre-emergence action against PHBPU in % (PHBPU [12]): 100%
COC(=O)COc1nn(-c2cccc(Cl)c2)c(-c2ccc(F)c(F)c2)c1C#N [I-051] | 90% | 80% |  |  |  |  | 90% |  | 80% | 80% |  | 90% | 90% |  | 80% |  | 90% | Post-emergence action against ALOMY in % (ALOMY): 80%; Post-emergence action against POLCO in % (POLCO): 80%
COC(=O)COc1nn(-c2ccccc2F)c(-c2ccccc2)c1C#N [I-022] |  |  | 80% | 80% | 90% | 100% | 100% | 80% | 80% | 80% | 100% | 80% | 80% | 100% | 80% | 90% | 90% | herbicidal efficacy against harmful plants in the case of pre-emergence treatment (harmful plants): good herbicidal efficacy; Post-emergence action against ECHCG in % (ECHCG [14]): 80%; Post-emergence action against SETVI in % (SETVI [15]): 80%; Post-emergence action against ALOMY in % (ALOMY): 80%; Pre-emergence action at 1280 g/ha against CYPES in % (CYPES): 100%; Post-emergence action against POLCO in % (POLCO): 80%; Pre-emergence action at 1280 g/ha against ECHCG in % (ECHCG [16]): 80%
COC(=O)COc1nn(-c2ccc(F)cc2)c(-c2ccc(F)c(F)c2)c1C#N [I-036] | 80% | 80% |  |  |  |  | 80% | 80% | 80% | 80% |  | 80% | 80% | 80% | 80% |  |  | 
C#Cc1c(OCC(=O)OC)nn(-c2cccc(F)c2)c1-c1cccc(F)c1 [I-069] |  | 80% |  | 90% | 90% | 90% | 90% |  | 80% |  |  |  |  | 90% |  | 90% | 100% | herbicidal efficacy against harmful plants in the case of pre-emergence treatment (harmful plants): good herbicidal efficacy; Pre-emergence action against PHBPU in % (PHBPU [12]): 80%; Pre-emergence action at 1280 g/ha against ECHCG in % (ECHCG [16]): 80%
COC(=O)COc1nn(-c2ccc(F)cc2)c(-c2ccc(F)c(F)c2)c1Cl [I-025] | 80% |  | 80% | 80% |  | 90% | 90% |  |  | 80% | 80% |  | 80% | 80% | 80% |  |  | 
COC(=O)COc1nn(-c2ccc(F)cc2)c(-c2ccc(F)cc2)c1C#N [I-009] |  |  |  | 80% |  |  |  |  |  | 80% |  |  |  |  |  |  |  | Post-emergence action against SETVI in % (SETVI [15]): 80%
